For this experiment, the system named is bacteria samples 4c, 4e, 5c, 5e, 6d. Description: Antibiotic susceptibility testing (colour of media), plate configuration #3, reference colours at 0 hours for bacteria samples 4c, 4e, 5c, 5e, 6d. The settings on record: T~0 h. Format: cell-based.
Setting [1] is: Benzyl Penicillin or Cloxacillin 1 μg/ml.
[2] abbreviates: Benzyl Penicillin or Cloxacillin 10 μg/ml.
Setting [3] is: Benzyl Penicillin or Cloxacillin 100 μg/ml.
Setting [4] is: Benzyl Penicillin or Cloxacillin 1,000 μg/ml.
Where [5] appears, read: Benzyl Penicillin or Cloxacillin 10,000 μg/ml.

The structures appear in SMILES notation.

The results in this text go back to US10829796B2, “Bacteria identification and antimicrobial susceptibility test” (priority 2015, dated 2020).

For the compound `CC1(C)S[C@@H]2[C@H](NC(=O)Cc3ccccc3)C(=O)N2[C@H]1C(=O)O` [benzyl penicillin], the “Colour of media in each well” value is, setting by setting: under setting [1], “Red”; under setting [2], “Red”; under setting [3], “Red”; under setting [4], “Red”; under setting [5], “Red”.

`C[C@H]1[C@H](NC(=O)/C(=N\OC(C)(C)C(=O)O)c2csc(N)n2)C(=O)N1S(=O)(=O)O` [aztreonam]: the “Colour of media in each well” value is, setting by setting: (Aztreonam 0.001 μg/ml) “red”; (Aztreonam 0.01 μg/ml) “red”; (Aztreonam 0.1 μg/ml) “red”; (Aztreonam 1 μg/ml) “red”; (Aztreonam 10 μg/ml) “red”.

Take `Cc1onc(-c2ccccc2Cl)c1C(=O)N[C@@H]1C(=O)N2[C@@H]1SC(C)(C)[C@@H]2C(=O)O` [cloxacillin]: the “Colour of media in each well” value under setting [1] is on record as “red”; the “Colour of media in each well” value under setting [2] was “red”; the “Colour of media in each well” value under setting [3] is “red”; the “Colour of media in each well” value under setting [4] was “red”; the “Colour of media in each well” value under setting [5] is “red”.
